We go through eleven molecules from patent US10214542B2, “Modified macrocyclic compounds” (BAYER PHARMA AKTIENGESELLSCHAFT, priority 2015, dated 2019).

One assay concerns the target T1, CDK2/CycE (Homo sapiens, UniProt P24941).
T1 construct: GST; purchased ProQinase GmbH (Freiburg, Germany); host or cells: insect cells (Sf9)
In words: CDK2/CycE kinase assay (TR-FRET, Method 2a). It is filed as biochemical. The settings on record: 10 μM ATP. The text has this: 2a. CDK2/CycE Kinase Assay:
CDK2/CycE-inhibitory activity of compounds of the present invention was quantified employing the CDK2/CycE TR-FRET assay as described in the following paragraphs:
Recombinant fusion proteins of GST and human CDK2 and of GST and human CycE, expressed in insect cells (Sf9) and purified by Glutathion-Sepharose affinity chromatography, were purchased from ProQinase GmbH (Freiburg, Germany). As substrate for the kinase reaction biotinylated peptide biotin-Ttds-YISPLKSPYKISEG (C-terminus in amid form) was used which can be purchased e.g. from the company JERINI Peptide Technologies (Berlin, Germany).
For the assay 50 nl of a 100 fold concentrated solution of the test compound in DMSO was pipetted into a black low volume 384 well microtiter plate (Greiner Bio-One, Frickenhausen, Germany), 2 μl of a solution of CDK2/CycE in aqueous assay buffer [50 mM Tris/HCl pH 8.0, 10 mM MgCl2, 1.0 mM dithiothreitol, 0.1 mM sodium ortho-vanadate, 0.01% (v/v) Nonidet-P40 (Sigma)] were added and the mixture was incubated for 15 min at 22° C. to allow pre-binding of the test compounds to the enzyme before the start of the kinase reaction. […] The concentration of CDK2/CycE was adjusted depending of the activity of the enzyme lot and was chosen appropriate to have the assay in the linear range, typical concentrations were in the range of 130 ng/mL. The reaction was stopped by the addition of 5 μl of a solution of TR-FRET detection reagents (0.2 μM streptavidine-XL665 [Cisbio Bioassays, Codolet, France] and 1 nM anti-RB(pSer807/pSer811)-antibody from BD Pharmingen [#558389] and 1.2 nM LANCE EU-W1024 labeled anti-mouse IgG antibody [Perkin-Elmer, product no. AD0077]) in an aqueous EDTA-solution (100 mM EDTA, 0.2% (w/v) bovine serum albumin in 100 mM HEPES pH 7.5).
The resulting mixture was incubated 1 h at 22° C. to allow the formation of complex between the phosphorylated biotinylated peptide and the detection reagents. Subsequently the amount of phosphorylated substrate was evaluated by measurement of the resonance energy transfer from the Eu-chelate to the streptavidine-XL. Therefore, the fluorescence emissions at 620 nm and 665 nm after excitation at 350 nm was measured in a TR-FRET reader, e.g. a Rubystar (BMG Labtechnologies, Offenburg, Germany) or a Viewlux (Perkin-Elmer). The ratio of the emissions at 665 nm and at […] was taken as the measure for the amount of phosphorylated substrate. The data were normalised (enzyme reaction without inhibitor=0% inhibition, all other assay components but no enzym=100% inhibition).
For orientation: Time-resolved FRET reads energy transfer from a long-lived donor to a nearby acceptor.

The subject of a further assay is B16F10 cells. Description: Proliferation assay, crystal violet (Method 3). The settings on record: Mus musculus, B16-F10, 96 h; B16F10, 4 days; read-out: Inhibition of B16F10 cell proliferation IC50. It is filed as cell-based. As for the experimental part:
(§1) Cultivated tumour cells (HeLa, human cervical tumour cells, ATCC CCL-2; NCI-H460, human non-small cell lung carcinoma cells, ATCC HTB-177; DU 145, hormone-independent human prostate carcinoma cells, ATCC HTB-81; HeLa-MaTu-ADR, multidrug-resistant human cervical carcinoma cells, EPO-GmbH Berlin; Caco-2, human colorectal carcinoma cells, ATCC HTB-37; B16F10, mouse melanoma cells, ATCC CRL-6475) were plated at a density of 5,000 cells/well (DU145, HeLa-MaTu-ADR), 3,000 cells/well (NCI-H460, HeLa), 1,500 cells/well (Caco-2), or 1,000 cells/well (B16F10) in a 96-well multititer plate in 200 μL of their respective growth medium supplemented 10% fetal calf serum. After 24 hours, the cells of one plate (zero-point plate) were stained with crystal violet (see below), while the medium of the other plates was supplemented with the test substances in various concentrations (0 μM, as well as in the range of 0.0001-10 μM; the final concentration of the solvent dimethyl sulfoxide was adjusted to 0.1%) using a Hewlett-Packard HP D300 Digital Dispenser. The cells were incubated for 4 days in the presence of test substances. Cell proliferation was determined by staining the cells with crystal violet: the cells were fixed by adding 20 μl/measuring point of an 11% glutaric aldehyde solution for 15 minutes at room temperature. After three washing cycles of the fixed cells with water, the plates were dried at room temperature. The cells were stained by adding 100 μl/measuring point of a 0.1% crystal violet solution (pH 3.0). After three washing cycles of the stained cells with water, the plates were dried at room temperature. The dye was dissolved by adding 100 μl/measuring point of a 10% acetic acid solution. The extinction was determined by photometry at a wavelength of 595 nm. The change of cell number, in percent, was calculated by normalization of the measured values to the extinction values of the zero-point plate (=0%) and the extinction of the untreated (0 μm) cells (=100%). The IC50 values (inhibitory concentration at 50% of maximal effect) were determined by means of a 4 parameter fit.

Another assay has as its system DU145 cells. In words: Proliferation assay, crystal violet (Method 3). It is filed as cell-based. The note with it: Homo sapiens, DU-145, 96 h; DU145, 4 days; read-out: Inhibition of DU145 cell proliferation IC50. The protocol: as §1
The next assay deals with Caco-2 cells. Description: Proliferation assay, crystal violet (Method 3). It is filed as cell-based. The note with it: Homo sapiens, 96 h; Caco-2, 4 days; read-out: Inhibition of Caco-2 cell proliferation IC50. As for the experimental part: as §1
The next assay concerns NCI-H460 cells. In words: Proliferation assay, crystal violet (Method 3). It is filed as cell-based. The note with it: Homo sapiens, 96 h; NCI-H460, 4 days; read-out: Inhibition of NCI-H460 cell proliferation IC50. As for the experimental part:
as §1

The test system of a further assay is HeLa-MaTu-ADR cells. In words: Proliferation assay, crystal violet (Method 3). It is filed as cell-based. The settings on record: Homo sapiens, 96 h, 4 days, read-out: Inhibition of HeLa-MaTu-ADR cell proliferation IC50. As for the experimental part:
as §1

On to `CS(=N)(=O)Cc1cc2nc(c1)Nc1cc(c(F)cn1)-c1ccc(F)cc1OCCCCCN2` (racemic) [Example 10, (rac)-17,21-difluoro-10-[(S-methylsulfonimidoyl)methyl]-2,3,4,5,6,7-hexahydro-13H-12,8-(azeno)-14,18-(metheno)-1,7,13,15-benzoxatriazacycloicosine], for which the IC50 at CDK2/CycE came out at 28 nM; in the assay with B16F10 cells it was 26 nM; in the assay with DU145 cells, 11 nM; in the assay on Caco-2 cells it was 13 nM; with NCI-H460 cells it was 18 nM; in the assay on HeLa-MaTu-ADR cells, 19 nM.

As for `CN1CCCCOc2cc(F)ccc2-c2cc(ncc2F)Nc2cc(CS(C)(=N)=O)cc1n2` (racemic) [Example 11, (rac)-16,20-difluoro-6-methyl-9-[(S-methylsulfonimidoyl)methyl]-3,4,5,6-tetrahydro-2H-7,11-(azeno)-17,13-(metheno)-1,6,12,14-benzoxatriazacyclononadecine], the IC50 was 34 nM on CDK2/CycE; 12 nM in the assay with B16F10 cells; 12 nM in the assay on DU145 cells; 8.9 nM in the assay on Caco-2 cells; 12 nM in the assay with NCI-H460 cells; 12 nM in the assay on HeLa-MaTu-ADR cells.

Turning to `CC(C)(C)OC(=O)N=S(C)(=O)Cc1cc2cc(c1)OCCCCNc1cc(F)ccc1-c1nc(ncc1F)N2` (racemic) [Example 15, (rac)-tert-butyl[{[16,20-difluoro-2,3,4,5-tetrahydro-1H,12H-13,17-(azeno)-11,7-(metheno)-6,1,12,14-benzoxatriazacyclononadecin-9-yl]methyl}(methyl)oxido-λ^6-sulfanylidene]carbamate], the IC50 against CDK2/CycE was determined as 262 nM; in the assay with B16F10 cells, 83 nM; with DU145 cells, 40 nM; in the assay on Caco-2 cells, 48 nM; in the assay on NCI-H460 cells, 64 nM; in the assay on HeLa-MaTu-ADR cells, 63 nM.

As to `CS(=N)(=O)Cc1cc2cc(c1)OCCCCNc1cc(F)ccc1-c1nc(ncc1F)N2` (racemic) [Example 16, (rac)-16,20-difluoro-9-[(S-methylsulfonimidoyl)methyl]-2,3,4,5-tetrahydro-1H-17,13-(azeno)-7,11-(metheno)-6,1,12,14-benzoxatriazacyclononadecine], the IC50 at CDK2/CycE is 30 nM; in the assay with B16F10 cells, 18 nM; in the assay on DU145 cells, 12 nM; in the assay with Caco-2 cells it was 12 nM; with NCI-H460 cells it was 20 nM; in the assay on HeLa-MaTu-ADR cells, 13 nM.

On to `CN1CCCCNc2cc(F)ccc2-c2nc(ncc2F)Nc2cc(CS(C)(=N)=O)cc1c2.O=CO` (racemic) [Example 17, (rac)-16,20-difluoro-6-methyl-9-[(S-methylsulfonimidoyl)methyl]-1,2,3,4,5,6-hexahydro-12H-17,13-(azeno)-11,7-(metheno)-1,6,12,14-benzotetraazacyclononadecine; salt with formic acid], for which the IC50 came out at 74 nM at CDK2/CycE; 38 nM in the assay with B16F10 cells; 30 nM in the assay with DU145 cells; 24 nM in the assay with Caco-2 cells; 35 nM with NCI-H460 cells; 30 nM in the assay with HeLa-MaTu-ADR cells.

As for `C[S+]([O-])Cc1cc2nc(c1)OCCCCCc1cc(F)ccc1-c1cc(ncc1F)N2` (racemic) [Example 19, (rac)-2,19-difluoro-9-[(methylsulfinyl)methyl]-14,15,16,17-tetrahydro-6H,13H-7,11-(azeno)-5,1-(metheno)-12,4,6-benzoxadiazacyclononadecine], the IC50 worked out at 371 nM against CDK2/CycE; 1550 nM with B16F10 cells; 942 nM in the assay on DU145 cells; 944 nM in the assay with Caco-2 cells; 1150 nM in the assay on NCI-H460 cells; 888 nM with HeLa-MaTu-ADR cells.

With `CS(=N)(=O)Cc1cc2nc(c1)OCCCCCc1cc(F)ccc1-c1cc(ncc1F)N2` (racemic) [Example 20, (rac)-2,19-difluoro-9-[(S-methylsulfonimidoyl)methyl]-14,15,16,17-tetrahydro-6H,13H-7,11-(azeno)-5,1-(metheno)-12,4,6-benzoxadiazacyclononadecine], the IC50 at CDK2/CycE stood at 162 nM; with B16F10 cells it was 867 nM; in the assay with DU145 cells, 347 nM; in the assay with Caco-2 cells, 350 nM; in the assay on NCI-H460 cells it was 579 nM; in the assay on HeLa-MaTu-ADR cells, 360 nM.

Regarding `CSCc1cc2nc(c1)Nc1cc(c(F)cn1)-c1ccc(F)cc1OCCCN2` [Example 1, 15,19-Difluoro-8-[(methylsulfanyl)methyl]-2,3,4,5-tetrahydro-11H-10,6-(azeno)-12,16-(metheno)-1,5,11,13-benzoxatriazacyclooctadecine], the IC50 is 81.5 nM against CDK2/CycE; 51 nM in the assay with B16F10 cells; 30 nM with DU145 cells; 36 nM in the assay on Caco-2 cells; 31 nM with NCI-H460 cells; 28 nM with HeLa-MaTu-ADR cells.

As to `CSCc1cc2nc(c1)OCCCCc1cc(F)ccc1-c1cc(ncc1F)N2` [Example 4, 2,18-Difluoro-9-[(methylsulfanyl)methyl]-13,14,15,16-tetrahydro-6H-7,11-(azeno)-5,1-(metheno)-12,4,6-benzoxadiazacyclooctadecine], the IC50 against CDK2/CycE is above 20000 nM; in the assay on B16F10 cells it was above 10000 nM; in the assay on DU145 cells, above 10000 nM; in the assay with Caco-2 cells, 2550 nM; in the assay with NCI-H460 cells it was 4770 nM; in the assay with HeLa-MaTu-ADR cells, 5570 nM.

For the molecule `CSCc1cc2nc(c1F)N(C)CCCCOc1cc(F)ccc1-c1cc(ncc1F)N2` [Example 12, 8,16,20-trifluoro-6-methyl-9-[(methylsulfanyl)methyl]-3,4,5,6-tetrahydro-2H,12H-11,7-(azeno)-13,17-(metheno)-1,6,12,14-benzoxatriazacyclononadecine], the IC50 on CDK2/CycE worked out at 27 nM; with B16F10 cells it was 991 nM; in the assay on DU145 cells it was 852 nM; in the assay on Caco-2 cells, 441 nM; with NCI-H460 cells, 588 nM; in the assay with HeLa-MaTu-ADR cells, 872 nM.

As for `CSCc1cc2nc(c1)OCCCCCc1cc(F)ccc1-c1cc(ncc1F)N2` [Example 18, 2,19-difluoro-9-[(methylsulfanyl)methyl]-14,15,16,17-tetrahydro-6H,13H-7,11-(azeno)-5,1-(metheno)-12,4,6-benzoxadiazacyclononadecine], the IC50 against CDK2/CycE is 2560 nM; with B16F10 cells, above 10000 nM; in the assay with DU145 cells, above 10000 nM; with Caco-2 cells, 4640 nM; in the assay on NCI-H460 cells, above 10000 nM; in the assay on HeLa-MaTu-ADR cells, above 10000 nM.
